Laboratory results: patent US20100099561A1, “HETEROBICYCLIC ALKYLTHIO-BRIDGED ISOXAZOLINES” (E.I. DU PONT DE NEMOURS AND COMPANY, priority 2008, published 2010)

What was measured:
Type in all cases: in vivo
[1] = system: barnyardgrass (Echinochloa crus-galli); test: Test A preemergence, barnyardgrass; settings: 0 to 100 scale (0 no effect, 100 complete control)
Method in brief: (§1)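 Pre: directed soil spray after sowing in loam/sand. Post: seedlings at 1–2 leaf stage, 2–10 cm. Vehicle: non-phytotoxic solvent mix + surfactant. Greenhouse ~10 d; visual injury 0–100 vs untreated controls.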

[2] = system: large crabgrass (Digitaria sanguinalis); test: Test A preemergence, large crabgrass; settings: 0 to 100 scale (0 no effect, 100 complete control)
Method in brief: as §1

[3] = system: giant foxtail (Setaria faberi); test: Test A preemergence, giant foxtail; settings: 0 to 100 scale (0 no effect, 100 complete control)
Method in brief: as §1

[4] = system: pigweed (Amaranthus retroflexus); test: Test A preemergence, pigweed; settings: 0 to 100 scale (0 no effect, 100 complete control)
Method in brief: as §1

corn (Zea mays) [5] = test: Test A preemergence, corn; settings: 0 to 100 scale (0 no effect, 100 complete control)
Method in brief: as §1

[6] = system: barnyardgrass (Echinochloa crus-galli); test: Test A postemergence, barnyardgrass; settings: 0 to 100 scale (0 no effect, 100 complete control)
Method in brief: as §1

[7] = system: giant foxtail (Setaria faberi); test: Test A postemergence, giant foxtail; settings: 0 to 100 scale (0 no effect, 100 complete control)
Method in brief: as §1

corn (Zea mays) [8] = test: Test A postemergence, corn; settings: 0 to 100 scale (0 no effect, 100 complete control)
Method in brief: as §1

[9] = system: green foxtail (Setaria viridis); test: Test B preemergence, green foxtail; settings: scale 0 to 100
Method in brief: (§2)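 Scores are visual ratings from 0 (no effect) to 100 (complete control), assigned relative to untreated controls. Treatment was a preemergence spray onto seeded loam–sand soil; plants then spent 13 to 15 days in a greenhouse.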

wild oat (Avena fatua) = test: Test B preemergence, wild oat; settings: scale 0 to 100
Method in brief: as §2

[10] = system: catchweed bedstraw (Galium aparine); test: Test B preemergence, catchweed bedstraw; settings: scale 0 to 100
Method in brief: as §2

[11] = system: giant foxtail (Setaria faberii); test: Test B preemergence, giant foxtail; settings: scale 0 to 100
Method in brief: as §2

[12] = system: nightshade (eastern black nightshade, Solanum ptycanthum); test: Test B preemergence, nightshade; settings: scale 0 to 100
Method in brief: as §2

[13] = system: yellow nutsedge (Cyperus esculentus); test: Test B preemergence, yellow nutsedge; settings: scale 0 to 100
Method in brief: as §2

soybean (Glycine max) = test: Test B preemergence, soybean; settings: Preemergence, scale 0 to 100
Method in brief: as §2

[14] = system: sunflower (common oilseed sunflower, Helianthus annuus); test: Test B preemergence, sunflower; settings: Preemergence, scale 0 to 100
Method in brief: as §2

[15] = system: velvetleaf (Abutilon theophrasti); test: Test B preemergence, velvetleaf; settings: Preemergence, scale 0 to 100
Method in brief: as §2

[16] = system: umbrella sedge (Cyperus difformis); test: Test B flooded paddy test, umbrella sedge; settings: Flood, scale 0 to 100
Method in brief: (§3)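 Paddy-water application to 2-leaf plants in pots held under 3 cm of flooding; response is a 0–100 visual control rating against controls after 13 to 15 days, and a dash marks a missing result.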

[17] = system: ducksalad (Heteranthera limosa); test: Test B flooded paddy test, ducksalad; settings: Flood, scale 0 to 100
Method in brief: as §3

[18] = system: barnyardgrass (Echinochloa crus-galli); test: Test B flooded paddy test, barnyardgrass; settings: Flood
Method in brief: as §3

[19] = 250 g ai/ha, scale 0 to 100 (0 no effect, 100 complete control)

CC1(C)CC(S(=O)(=O)Cc2c(C(F)(F)F)nc3n(c2=O)CCO3)=NO1 [Compound 2, 6-[[(4,5-dihydro-5,5-dimethyl-3-isoxazolyl)sulfonyl]methyl]-2,3-dihydro-7-(trifluoromethyl)-5H-oxazolo[3,2-α]pyrimidin-5-one]
Plant response rating, Barnyardgrass ([1]; 125 g ai/ha): 80
Plant response rating, Barnyardgrass ([1]; 500 g ai/ha): 90
Plant response rating, Crabgrass, Large ([2]; 125 g ai/ha): 90
Plant response rating, Crabgrass, Large ([2]; 500 g ai/ha): 100
Plant response rating, Foxtail, Giant ([3]; 125 g ai/ha): 90
Plant response rating, Foxtail, Giant ([3]; 500 g ai/ha): 100
Plant response rating, Pigweed ([4]; 125 g ai/ha): 20
Plant response rating, Pigweed ([4]; 500 g ai/ha): 60
Plant response rating, Corn (corn (Zea mays) [5]; 125 g ai/ha): 0
Plant response rating, Corn (corn (Zea mays) [5]; 500 g ai/ha): 50
Plant response rating, Barnyardgrass ([6]; 125 g ai/ha): 70
Plant response rating, Barnyardgrass ([6]; 500 g ai/ha): 80
Plant response rating, Foxtail, Giant ([7]; 125 g ai/ha): 50
Plant response rating, Foxtail, Giant ([7]; 500 g ai/ha): 80
Plant response rating, Corn (corn (Zea mays) [8]; 125 g ai/ha): 0
Plant response rating, Corn (corn (Zea mays) [8]; 500 g ai/ha): 50
Plant response rating, Foxtail, Green ([9]; 8 g ai/ha): 0
Plant response rating, Foxtail, Green ([9]; 16 g ai/ha): 10
Plant response rating, Foxtail, Green ([9]; 31 g ai/ha): 55
Plant response rating, Foxtail, Green ([9]; 62 g ai/ha): 85
Plant response rating, Oat, Wild (wild oat (Avena fatua); 8 g ai/ha): 0
Plant response rating, Oat, Wild (wild oat (Avena fatua); 16 g ai/ha): 0
Plant response rating, Oat, Wild (wild oat (Avena fatua); 31 g ai/ha): 0
Plant response rating, Oat, Wild (wild oat (Avena fatua); 62 g ai/ha): 25
Plant response rating, Galium ([10]; 8 g ai/ha): 0
Plant response rating, Galium ([10]; 16 g ai/ha): 100
Plant response rating, Galium ([10]; 31 g ai/ha): 100
Plant response rating, Galium ([10]; 62 g ai/ha): 100
Plant response rating, Foxtail, Giant ([11]; 8 g ai/ha): 0
Plant response rating, Foxtail, Giant ([11]; 16 g ai/ha): 50
Plant response rating, Foxtail, Giant ([11]; 31 g ai/ha): 70
Plant response rating, Foxtail, Giant ([11]; 62 g ai/ha): 98
Plant response rating, Nightshade ([12]; 8 g ai/ha): 0
Plant response rating, Nightshade ([12]; 16 g ai/ha): 0
Plant response rating, Nightshade ([12]; 31 g ai/ha): 0
Plant response rating, Nightshade ([12]; 62 g ai/ha): 0
Plant response rating, Nutsedge, Yellow ([13]; 8 g ai/ha): 0
Plant response rating, Nutsedge, Yellow ([13]; 16 g ai/ha): 0
Plant response rating, Nutsedge, Yellow ([13]; 31 g ai/ha): 0
Plant response rating, Nutsedge, Yellow ([13]; 62 g ai/ha): 0
Plant response rating, Soybean (soybean (Glycine max); 31 g ai/ha): 0
Plant response rating, Soybean (soybean (Glycine max); 62 g ai/ha): 0
Plant response rating, Sunflower ([14]; 16 g ai/ha): 0
Plant response rating, Sunflower ([14]; 31 g ai/ha): 0
Plant response rating, Sunflower ([14]; 62 g ai/ha): 0
Plant response rating, Velvetleaf ([15]; 16 g ai/ha): 0
Plant response rating, Velvetleaf ([15]; 31 g ai/ha): 0
Plant response rating, Velvetleaf ([15]; 62 g ai/ha): 0
Plant response rating, Sedge, Umbrella ([16]; 62 g ai/ha): 0
Plant response rating, Sedge, Umbrella ([16]; 250 g ai/ha): 0
Plant response rating, Ducksalad ([17]; 62 g ai/ha): 0
Plant response rating, Ducksalad ([17]; 250 g ai/ha): 0
Plant response rating, Barnyardgrass ([18]; 62 g ai/ha, scale 0 to 100): 0
Plant response rating, Barnyardgrass [18, 19]: 0

CC1(C)CC(S(=O)(=O)Cc2c(C(F)(F)F)nc3ccsn3c2=O)=NO1 [Compound 16]
Plant response rating, Barnyardgrass ([1]; 125 g ai/ha): 50
Plant response rating, Barnyardgrass ([1]; 500 g ai/ha): 80
Plant response rating, Crabgrass, Large ([2]; 125 g ai/ha): 90
Plant response rating, Crabgrass, Large ([2]; 500 g ai/ha): 90
Plant response rating, Foxtail, Giant ([3]; 125 g ai/ha): 90
Plant response rating, Foxtail, Giant ([3]; 500 g ai/ha): 90
Plant response rating, Pigweed ([4]; 500 g ai/ha): 100
Plant response rating, Corn (corn (Zea mays) [5]; 125 g ai/ha): 0
Plant response rating, Corn (corn (Zea mays) [5]; 500 g ai/ha): 0
Plant response rating, Barnyardgrass ([6]; 125 g ai/ha): 80
Plant response rating, Barnyardgrass ([6]; 500 g ai/ha): 90
Plant response rating, Foxtail, Giant ([7]; 125 g ai/ha): 80
Plant response rating, Foxtail, Giant ([7]; 500 g ai/ha): 90
Plant response rating, Corn (corn (Zea mays) [8]; 125 g ai/ha): 0
Plant response rating, Corn (corn (Zea mays) [8]; 500 g ai/ha): 0
Plant response rating, Foxtail, Green ([9]; 16 g ai/ha): 0
Plant response rating, Foxtail, Green ([9]; 31 g ai/ha): 20
Plant response rating, Foxtail, Green ([9]; 62 g ai/ha): 85
Plant response rating, Foxtail, Green ([9]; 125 g ai/ha): 98
Plant response rating, Oat, Wild (wild oat (Avena fatua); 16 g ai/ha): 0
Plant response rating, Oat, Wild (wild oat (Avena fatua); 31 g ai/ha): 20
Plant response rating, Oat, Wild (wild oat (Avena fatua); 62 g ai/ha): 30
Plant response rating, Oat, Wild (wild oat (Avena fatua); 125 g ai/ha): 60
Plant response rating, Galium ([10]; 16 g ai/ha): 0
Plant response rating, Galium ([10]; 31 g ai/ha): 0
Plant response rating, Galium ([10]; 62 g ai/ha): 0
Plant response rating, Galium ([10]; 125 g ai/ha): 70
Plant response rating, Foxtail, Giant ([11]; 16 g ai/ha): 0
Plant response rating, Foxtail, Giant ([11]; 31 g ai/ha): 80
Plant response rating, Foxtail, Giant ([11]; 62 g ai/ha): 90
Plant response rating, Foxtail, Giant ([11]; 125 g ai/ha): 98
Plant response rating, Nightshade ([12]; 16 g ai/ha): 0
Plant response rating, Nightshade ([12]; 31 g ai/ha): 0
Plant response rating, Nightshade ([12]; 62 g ai/ha): 85
Plant response rating, Nightshade ([12]; 125 g ai/ha): 95
Plant response rating, Nutsedge, Yellow ([13]; 16 g ai/ha): 0
Plant response rating, Nutsedge, Yellow ([13]; 31 g ai/ha): 0
Plant response rating, Nutsedge, Yellow ([13]; 62 g ai/ha): 0
Plant response rating, Nutsedge, Yellow ([13]; 125 g ai/ha): 0
Plant response rating, Soybean (soybean (Glycine max); 16 g ai/ha): 0
Plant response rating, Soybean (soybean (Glycine max); 31 g ai/ha): 0
Plant response rating, Soybean (soybean (Glycine max); 62 g ai/ha): 0
Plant response rating, Soybean (soybean (Glycine max); 125 g ai/ha): 0
Plant response rating, Sunflower ([14]; 16 g ai/ha): 0
Plant response rating, Sunflower ([14]; 31 g ai/ha): 0
Plant response rating, Sunflower ([14]; 62 g ai/ha): 0
Plant response rating, Sunflower ([14]; 125 g ai/ha): 0
Plant response rating, Velvetleaf ([15]; 16 g ai/ha): 0
Plant response rating, Velvetleaf ([15]; 31 g ai/ha): 0
Plant response rating, Velvetleaf ([15]; 62 g ai/ha): 0
Plant response rating, Velvetleaf ([15]; 125 g ai/ha): 0
Plant response rating, Sedge, Umbrella ([16]; 62 g ai/ha): 0
Plant response rating, Sedge, Umbrella ([16]; 250 g ai/ha): 40
Plant response rating, Ducksalad ([17]; 62 g ai/ha): 40
Plant response rating, Ducksalad ([17]; 250 g ai/ha): 40
Plant response rating, Barnyardgrass ([18]; 62 g ai/ha, scale 0 to 100): 0
Plant response rating, Barnyardgrass [18, 19]: 0
